Test results as given in ChEMBL document CHEMBL2440076, “New triarylpyrazoles as broad-spectrum anticancer agents: design, synthesis, and biological evaluation” (Eur J Med Chem, 2013).

Key:
Format in all cases: functional
[1] = test system: ACHN; assay: Growth inhibition of human ACHN cells assessed as cell growth at 5X10'-7 M after 48 hrs by sulforhodamine B assay; conditions: read-out: Activity
[2] = Growth inhibition of human HCC2998 cells assessed as cell growth at 5X10'-6 M after 48 hrs by sulforhodamine B assay; conditions: HCC 2998, 48 h, read-out: Activity
[3] = test system: OVCAR-3; assay: Growth inhibition of human OVCAR3 cells assessed as cell growth at 5X10'-5 M after 48 hrs by sulforhodamine B assay; conditions: OVCAR-3, 48 h, read-out: Activity
[4] = test system: SNB-19; assay: Growth inhibition of human SNB19 cells assessed as cell growth at 5X10'-9 M after 48 hrs by sulforhodamine B assay; conditions: SNB-19, 48 h, read-out: Activity
[5] = test system: MDA-MB-468; assay: Growth inhibition of human MDA-MB-468 cells assessed as cell growth at 5X10'-5 M after 48 hrs by sulforhodamine B assay; conditions: MDA-MB-468, 48 h, read-out: Activity
[6] = test system: LOX IMVI; assay: Growth inhibition of human LOXIMVI cells assessed as cell growth at 5X10'-9 M after 48 hrs by sulforhodamine B assay; conditions: read-out: Activity
[7] = test system: SF-539; assay: Growth inhibition of human SF539 cells assessed as cell growth at 5X10'-7 M after 48 hrs by sulforhodamine B assay; conditions: SF-539, 48 h, read-out: Activity
[8] = test system: PC-3; assay: Growth inhibition of human PC3 cells assessed as cell growth at 5X10'-8 M after 48 hrs by sulforhodamine B assay; conditions: PC-3, 48 h, read-out: Activity
[9] = test system: A498; assay: Growth inhibition of human A498 cells assessed as cell growth at 5X10'-8 M after 48 hrs by sulforhodamine B assay; conditions: A498, 48 h, read-out: Activity
[10] = test system: U-251; assay: Growth inhibition of human U251 cells assessed as cell growth at 5X10'-5 M after 48 hrs by sulforhodamine B assay; conditions: U-251, 48 h, read-out: Activity
[11] = test system: HOP-92; assay: Growth inhibition of human HOP92 cells assessed as cell growth at 5X10'-6 M after 48 hrs by sulforhodamine B assay; conditions: HOP-92, 48 h, read-out: Activity
[12] = Growth inhibition of human NCI-ADR-RES cells assessed as cell growth at 5X10'-5 M after 48 hrs by sulforhodamine B assay; conditions: read-out: Activity
[13] = test system: SF-539; assay: Growth inhibition of human SF539 cells assessed as cell growth at 5X10'-5 M after 48 hrs by sulforhodamine B assay; conditions: SF-539, 48 h, read-out: Activity
[14] = test system: RPMI-8226; assay: Growth inhibition of human RPMI8226 cells assessed as cell growth at 5X10'-9 M after 48 hrs by sulforhodamine B assay; conditions: RPMI-8226, 48 h, read-out: Activity
[15] = test system: OVCAR-4; assay: Growth inhibition of human OVCAR4 cells assessed as cell growth at 5X10'-5 M after 48 hrs by sulforhodamine B assay; conditions: OVCAR-4, 48 h, read-out: Activity
[16] = test system: COLO 205; assay: Growth inhibition of human COLO205 cells assessed as cell growth at 5X10'-6 M after 48 hrs by sulforhodamine B assay; conditions: COLO 205, 48 h, read-out: Activity
[17] = test system: SK-MEL-2; assay: Growth inhibition of human SK-MEL-2 cells assessed as cell growth at 5X10'-5 M after 48 hrs by sulforhodamine B assay; conditions: SK-MEL-2, 48 h, read-out: Activity
[18] = test system: SK-OV-3; assay: Growth inhibition of human SKOV3 cells assessed as cell growth at 5X10'-9 M after 48 hrs by sulforhodamine B assay; conditions: SK-OV-3, 48 h, read-out: Activity
[19] = test system: NCI-H23; assay: Growth inhibition of human NCI-H23 cells assessed as cell growth at 5X10'-7 M after 48 hrs by sulforhodamine B assay; conditions: NCI-H23, 48 h, read-out: Activity
[20] = test system: SK-OV-3; assay: Growth inhibition of human SKOV3 cells assessed as cell growth at 5X10'-6 M after 48 hrs by sulforhodamine B assay; conditions: SK-OV-3, 48 h, read-out: Activity
[21] = test system: PC-3; assay: Growth inhibition of human PC3 cells assessed as cell growth at 5X10'-5 M after 48 hrs by sulforhodamine B assay; conditions: PC-3, 48 h, read-out: Activity
[22] = test system: HOP-62; assay: Growth inhibition of human HOP62 cells assessed as cell growth at 5X10'-5 M after 48 hrs by sulforhodamine B assay; conditions: HOP-62, 48 h, read-out: Activity
[23] = test system: CAKI-1; assay: Growth inhibition of human CAKI-1 cells assessed as cell growth at 5X10'-6 M after 48 hrs by sulforhodamine B assay; conditions: CAKI-1, 48 h, read-out: Activity
[24] = test system: U-251; assay: Growth inhibition of human U251 cells assessed as cell growth at 5X10'-9 M after 48 hrs by sulforhodamine B assay; conditions: U-251, 48 h, read-out: Activity
[25] = test system: UO-31; assay: Growth inhibition of human UO31 cells assessed as cell growth at 5X10'-9 M after 48 hrs by sulforhodamine B assay; conditions: UO-31, 48 h, read-out: Activity
[26] = test system: M14; assay: Growth inhibition of human M14 cells assessed as cell growth at 5X10'-5 M after 48 hrs by sulforhodamine B assay; conditions: M14, 48 h, read-out: Activity
[27] = test system: HL-60(TB); assay: Growth inhibition of human HL-60(TB) cells assessed as cell growth at 5X10'-7 M after 48 hrs by sulforhodamine B assay; conditions: HL-60, 48 h, read-out: Activity
[28] = test system: SK-MEL-5; assay: Growth inhibition of human SK-MEL-5 cells assessed as cell growth at 5X10'-7 M after 48 hrs by sulforhodamine B assay; conditions: SK-MEL-5, 48 h, read-out: Activity
[29] = test system: OVCAR-3; assay: Growth inhibition of human OVCAR3 cells assessed as cell growth at 5X10'-9 M after 48 hrs by sulforhodamine B assay; conditions: OVCAR-3, 48 h, read-out: Activity
[30] = test system: T47D; assay: Growth inhibition of human T47D cells assessed as cell growth at 5X10'-5 M after 48 hrs by sulforhodamine B assay; conditions: read-out: Activity
[31] = test system: SW-620; assay: Growth inhibition of human SW620 cells assessed as cell growth at 5X10'-6 M after 48 hrs by sulforhodamine B assay; conditions: SW-620, 48 h, read-out: Activity
[32] = Growth inhibition of human Hs 578T cells assessed as cell growth at 5X10'-5 M after 48 hrs by sulforhodamine B assay; conditions: read-out: Activity
[33] = test system: SW-620; assay: Growth inhibition of human SW620 cells assessed as cell growth at 5X10'-5 M after 48 hrs by sulforhodamine B assay; conditions: SW-620, 48 h, read-out: Activity
[34] = test system: A498; assay: Growth inhibition of human A498 cells assessed as cell growth at 5X10'-6 M after 48 hrs by sulforhodamine B assay; conditions: A498, 48 h, read-out: Activity
[35] = test system: MDA-MB-435; assay: Growth inhibition of human MDA-MB-435 cells assessed as cell growth at 5X10'-6 M after 48 hrs by sulforhodamine B assay; conditions: MDA-MB-435, 48 h, read-out: Activity
[36] = test system: SK-MEL-5; assay: Growth inhibition of human SK-MEL-5 cells assessed as cell growth at 5X10'-9 M after 48 hrs by sulforhodamine B assay; conditions: SK-MEL-5, 48 h, read-out: Activity
[37] = test system: LOX IMVI; assay: Growth inhibition of human LOXIMVI cells assessed as cell growth at 5X10'-7 M after 48 hrs by sulforhodamine B assay; conditions: read-out: Activity

Compound | growth at 0.5 µM [1] [%] | growth at 5 µM [2] [%] | growth at 50 µM [3] [%] | growth at 0.005 µM [4] [%] | growth at 50 µM [5] [%] | growth at 0.005 µM [6] [%] | growth at 0.5 µM [7] [%] | growth at 0.05 µM [8] [%] | growth at 0.05 µM [9] [%] | growth at 50 µM [10] [%] | growth at 5 µM [11] [%] | growth at 50 µM [12] [%] | growth at 50 µM [13] [%] | growth at 0.005 µM [14] [%] | growth at 50 µM [15] [%] | growth at 5 µM [16] [%] | growth at 50 µM [17] [%] | growth at 0.005 µM [18] [%] | growth at 0.5 µM [19] [%] | growth at 5 µM [20] [%] | other results
COc1cc(-c2nn(-c3cccc(NC(=O)Nc4cc(C(F)(F)F)cc(C(F)(F)F)c4)c3)cc2-c2ccncc2)ccc1Cl | 50 | -70 | -78 | 95 | -53 | 101 | 85 | 90 | 82 | -78 | -52 | -16 | -78 | 99 | -21 | -94 | -84 | 102 | 85 | -39 | growth at 50 µM [21]: -31%; growth at 50 µM [22]: -95%; growth at 5 µM [23]: -20%; growth at 0.005 µM [24]: 97%; growth at 0.005 µM [25]: 90%; growth at 50 µM [26]: -28%; growth at 0.5 µM [27]: 75%; growth at 0.5 µM [28]: 74%; growth at 0.005 µM [29]: 114%; growth at 50 µM [30]: 5%; growth at 5 µM [31]: -51%; growth at 50 µM [32]: -10%; growth at 50 µM [33]: -65%; growth at 5 µM [34]: -43%; growth at 5 µM [35]: -57%; growth at 0.005 µM [36]: 99%; growth at 0.5 µM [37]: 84%
O=C(Nc1cccc(-n2cc(-c3ccncc3)c(-c3ccc(Cl)c(O)c3)n2)c1)c1ccc(N2CCOCC2)c(C(F)(F)F)c1 | 85 | 53 | 11 | 97 | -24 | 95 | 73 | 96 | 83 | -7 | -7 | 16 | -18 | 98 | 46 | 87 | -36 | 95 | 96 | 72 | growth at 50 µM [21]: 7%; growth at 50 µM [22]: 6%; growth at 5 µM [23]: 34%; growth at 0.005 µM [24]: 101%; growth at 0.005 µM [25]: 88%; growth at 50 µM [26]: -50%; growth at 0.5 µM [27]: 130%; growth at 0.5 µM [28]: 93%; growth at 0.005 µM [29]: 98%; growth at 50 µM [30]: 44%; growth at 5 µM [31]: 2%; growth at 50 µM [32]: 8%; growth at 50 µM [33]: -31%; growth at 5 µM [34]: 92%; growth at 5 µM [35]: 28%; growth at 0.005 µM [36]: 101%; growth at 0.5 µM [37]: 92%
COc1cc(-c2nn(-c3cccc(NC(=O)Nc4cccc(C(F)(F)F)c4)c3)cc2-c2ccncc2)ccc1Cl | 58 | -23 | -54 | 96 | -44 | 95 | 79 | 90 | 87 | -84 | -45 | -9 | -58 | 98 | -3 | -78 | -85 | 100 | 90 | 16 | growth at 50 µM [21]: -22%; growth at 50 µM [22]: -32%; growth at 5 µM [23]: -14%; growth at 0.005 µM [24]: 97%; growth at 0.005 µM [25]: 88%; growth at 50 µM [26]: -64%; growth at 0.5 µM [27]: 85%; growth at 0.5 µM [28]: 78%; growth at 0.005 µM [29]: 108%; growth at 50 µM [30]: 1%; growth at 5 µM [31]: 5%; growth at 50 µM [32]: -6%; growth at 50 µM [33]: -6%; growth at 5 µM [34]: -7%; growth at 5 µM [35]: -47%; growth at 0.005 µM [36]: 99%; growth at 0.5 µM [37]: 81%
